Organism: Rattus norvegicus
Experiment: Open TG-GATES - Regimen: Single
Assay type: toxicity, organism-based, Sprague-Dawley
Design: regimen Single, gender Male, age 6 weeks
Details: in vivo, po, route gavage; for APTT / Bas / Eos / Fbg / Hb / Ht / Lym / MCHC / MCV / Mono / Neu / PT / Plat / RBC / Ret / WBC: tissue Blood; for KIDNEY_L / KIDNEY_R / KIDNEY_TOTAL: tissue Kidney; for LIVER: tissue Liver; for ALP / ALT / AST / BUN / CRE / DBIL / GLC / IP / K / LDH / Na / PL / RALB / TBIL / TC / TG / TP / gamma-GTP: tissue Plasma
[1] = 1000 mg/kg, 3 h, dose level Middle
[2] = 1000 mg/kg, 6 h, dose level Middle
[3] = 1000 mg/kg, 9 h, dose level Middle
[4] = 1000 mg/kg, 24 h, dose level Middle
[5] = 2000 mg/kg, 3 h, dose level High
[6] = 2000 mg/kg, 6 h, dose level High
[7] = 2000 mg/kg, 9 h, dose level High
[8] = 2000 mg/kg, 24 h, dose level High

C#C[C@]1(O)CC[C@H]2[C@@H]3CCC4=Cc5oncc5C[C@]4(C)[C@H]3CC[C@@]21C [DANAZOL]
TERMINAL_BW [1]: 216 g | APTT [1]: 22.9 s | Bas [1]: 0% | Eos [1]: 1% | Fbg [1]: 300.8 mg/dL | Hb [1]: 13.5 g/dL | Ht [1]: 40.7% | Lym [1]: 79.2% | MCHC [1]: 33.1% | MCV [1]: 63.8 fL | Mono [1]: 2.4% | Neu [1]: 16.2% | PT [1]: 15.7 s | Plat [1]: 103.2 x10_4/uL | RBC [1]: 638.4 x10_4/ul | Ret [1]: 7.1% | WBC [1]: 83.8 x10_2/uL | KIDNEY_L [1]: 0.9 g | KIDNEY_R [1]: 0.9 g | KIDNEY_TOTAL [1]: 1.8 g | LIVER [1]: 9.6 g | ALP [1]: 1405.8 IU/L | ALT [1]: 41.8 IU/L | AST [1]: 78 IU/L | BUN [1]: 14 mg/dL | CRE [1]: 0.2 mg/dL | DBIL [1]: 0.002 mg/dL | GLC [1]: 178.6 mg/dL | IP [1]: 7.6 mg/dL | K [1]: 4.1 meq/L | LDH [1]: 128 IU/L | Na [1]: 142.4 meq/L | PL [1]: 129 mg/dL | RALB [1]: 3 g/dL | TBIL [1]: 0.022 mg/dL | TC [1]: 66.6 mg/dL | TG [1]: 73.4 mg/dL | TP [1]: 5.5 g/dL | gamma-GTP [1]: 1.8 IU/L | TERMINAL_BW [2]: 216.7 g | APTT [2]: 22.9 s | Bas [2]: 0% | Eos [2]: 1% | Fbg [2]: 306.4 mg/dL | Hb [2]: 13 g/dL | Ht [2]: 39.6% | Lym [2]: 74.2% | MCHC [2]: 32.8% | MCV [2]: 62.6 fL | Mono [2]: 3% | Neu [2]: 21% | PT [2]: 16.4 s | Plat [2]: 107.1 x10_4/uL | RBC [2]: 633.6 x10_4/ul | Ret [2]: 7.6% | WBC [2]: 97.7 x10_2/uL | KIDNEY_L [2]: 0.9 g | KIDNEY_R [2]: 1 g | KIDNEY_TOTAL [2]: 1.9 g | LIVER [2]: 9.5 g | ALP [2]: 1279 IU/L | ALT [2]: 34.4 IU/L | AST [2]: 70.8 IU/L | BUN [2]: 10.2 mg/dL | CRE [2]: 0.1 mg/dL | DBIL [2]: 0.002 mg/dL | GLC [2]: 181.8 mg/dL | IP [2]: 9.3 mg/dL | K [2]: 4.2 meq/L | LDH [2]: 139.8 IU/L | Na [2]: 141.4 meq/L | PL [2]: 131.6 mg/dL | RALB [2]: 3 g/dL | TBIL [2]: 0.026 mg/dL | TC [2]: 67 mg/dL | TG [2]: 60.4 mg/dL | TP [2]: 5.4 g/dL | gamma-GTP [2]: 1.4 IU/L | TERMINAL_BW [3]: 208.1 g | APTT [3]: 21.9 s | Bas [3]: 0% | Eos [3]: 0.6% | Fbg [3]: 302.4 mg/dL | Hb [3]: 12.9 g/dL | Ht [3]: 39.7% | Lym [3]: 77.8% | MCHC [3]: 32.6% | MCV [3]: 62.9 fL | Mono [3]: 2.2% | Neu [3]: 18.6% | PT [3]: 16.7 s | Plat [3]: 114.4 x10_4/uL | RBC [3]: 630.2 x10_4/ul | Ret [3]: 7.3% | WBC [3]: 82.7 x10_2/uL | KIDNEY_L [3]: 0.9 g | KIDNEY_R [3]: 1 g | KIDNEY_TOTAL [3]: 1.9 g | LIVER [3]: 8.6 g | ALP [3]: 1309.4 IU/L | ALT [3]: 33.6 IU/L | AST [3]: 66.8 IU/L | BUN [3]: 9.6 mg/dL | CRE [3]: 0.1 mg/dL | DBIL [3]: 0.014 mg/dL | GLC [3]: 178.8 mg/dL | IP [3]: 9.4 mg/dL | K [3]: 4.2 meq/L | LDH [3]: 139 IU/L | Na [3]: 141.4 meq/L | PL [3]: 109 mg/dL | RALB [3]: 3 g/dL | TBIL [3]: 0.038 mg/dL | TC [3]: 54.4 mg/dL | TG [3]: 53 mg/dL | TP [3]: 5.4 g/dL | gamma-GTP [3]: 1.6 IU/L | TERMINAL_BW [4]: 216 g | APTT [4]: 23.2 s | Bas [4]: 0% | Eos [4]: 1% | Fbg [4]: 290 mg/dL | Hb [4]: 13.6 g/dL | Ht [4]: 41% | Lym [4]: 81.5% | MCHC [4]: 33.2% | MCV [4]: 62.3 fL | Mono [4]: 2.8% | Neu [4]: 13.5% | PT [4]: 17.8 s | Plat [4]: 107.7 x10_4/uL | RBC [4]: 658.6 x10_4/ul | Ret [4]: 6.6% | WBC [4]: 73 x10_2/uL | KIDNEY_L [4]: 1 g | KIDNEY_R [4]: 1 g | KIDNEY_TOTAL [4]: 2 g | LIVER [4]: 10.5 g | ALP [4]: 1988.8 IU/L | ALT [4]: 42.4 IU/L | AST [4]: 72.2 IU/L | BUN [4]: 13.8 mg/dL | CRE [4]: 0.1 mg/dL | DBIL [4]: 0 mg/dL | GLC [4]: 184.6 mg/dL | IP [4]: 6.5 mg/dL | K [4]: 4.5 meq/L | LDH [4]: 186 IU/L | Na [4]: 141 meq/L | PL [4]: 123 mg/dL | RALB [4]: 3.1 g/dL | TBIL [4]: 0.002 mg/dL | TC [4]: 45.8 mg/dL | TG [4]: 233.4 mg/dL | TP [4]: 5.5 g/dL | gamma-GTP [4]: 1.2 IU/L | TERMINAL_BW [5]: 217 g | APTT [5]: 22.7 s | Bas [5]: 0% | Eos [5]: 1% | Fbg [5]: 312.2 mg/dL | Hb [5]: 13.3 g/dL | Ht [5]: 40.5% | Lym [5]: 77.2% | MCHC [5]: 33% | MCV [5]: 62.8 fL | Mono [5]: 3.2% | Neu [5]: 18.2% | PT [5]: 15.5 s | Plat [5]: 120.2 x10_4/uL | RBC [5]: 644 x10_4/ul | Ret [5]: 7.3% | WBC [5]: 73.3 x10_2/uL | KIDNEY_L [5]: 1 g | KIDNEY_R [5]: 1 g | KIDNEY_TOTAL [5]: 2 g | LIVER [5]: 9.7 g | ALP [5]: 1466 IU/L | ALT [5]: 45 IU/L | AST [5]: 78 IU/L | BUN [5]: 13.6 mg/dL | CRE [5]: 0.1 mg/dL | DBIL [5]: 0 mg/dL | GLC [5]: 178.2 mg/dL | IP [5]: 8.5 mg/dL | K [5]: 4.4 meq/L | LDH [5]: 162 IU/L | Na [5]: 141 meq/L | PL [5]: 138.4 mg/dL | RALB [5]: 3.1 g/dL | TBIL [5]: 0.02 mg/dL | TC [5]: 68.2 mg/dL | TG [5]: 99.2 mg/dL | TP [5]: 5.4 g/dL | gamma-GTP [5]: 1.8 IU/L | TERMINAL_BW [6]: 217.1 g | APTT [6]: 23.2 s | Bas [6]: 0% | Eos [6]: 1% | Fbg [6]: 282.6 mg/dL | Hb [6]: 12.6 g/dL | Ht [6]: 39% | Lym [6]: 75.4% | MCHC [6]: 32.3% | MCV [6]: 63.5 fL | Mono [6]: 2.8% | Neu [6]: 20.6% | PT [6]: 16.5 s | Plat [6]: 113.2 x10_4/uL | RBC [6]: 613 x10_4/ul | Ret [6]: 8.1% | WBC [6]: 86.2 x10_2/uL | KIDNEY_L [6]: 1 g | KIDNEY_R [6]: 1 g | KIDNEY_TOTAL [6]: 2 g | LIVER [6]: 9.6 g | ALP [6]: 1348.6 IU/L | ALT [6]: 34.8 IU/L | AST [6]: 69 IU/L | BUN [6]: 12.2 mg/dL | CRE [6]: 0.1 mg/dL | DBIL [6]: 0 mg/dL | GLC [6]: 178 mg/dL | IP [6]: 8.5 mg/dL | K [6]: 4.5 meq/L | LDH [6]: 159.6 IU/L | Na [6]: 140.4 meq/L | PL [6]: 122.4 mg/dL | RALB [6]: 2.9 g/dL | TBIL [6]: 0.028 mg/dL | TC [6]: 57.6 mg/dL | TG [6]: 71.6 mg/dL | TP [6]: 5.3 g/dL | gamma-GTP [6]: 1.8 IU/L | TERMINAL_BW [7]: 216.8 g | APTT [7]: 23.7 s | Bas [7]: 0% | Eos [7]: 0.8% | Fbg [7]: 276.2 mg/dL | Hb [7]: 12.7 g/dL | Ht [7]: 39.3% | Lym [7]: 74.6% | MCHC [7]: 32.3% | MCV [7]: 63.9 fL | Mono [7]: 2.8% | Neu [7]: 20.8% | PT [7]: 16.9 s | Plat [7]: 110.6 x10_4/uL | RBC [7]: 615.4 x10_4/ul | Ret [7]: 7.2% | WBC [7]: 77.3 x10_2/uL | KIDNEY_L [7]: 1 g | KIDNEY_R [7]: 1 g | KIDNEY_TOTAL [7]: 2 g | LIVER [7]: 9.1 g | ALP [7]: 1416.2 IU/L | ALT [7]: 31.6 IU/L | AST [7]: 73.8 IU/L | BUN [7]: 11.6 mg/dL | CRE [7]: 0.2 mg/dL | DBIL [7]: 0.004 mg/dL | GLC [7]: 180.8 mg/dL | IP [7]: 9.2 mg/dL | K [7]: 4.2 meq/L | LDH [7]: 128 IU/L | Na [7]: 141.2 meq/L | PL [7]: 110.8 mg/dL | RALB [7]: 2.9 g/dL | TBIL [7]: 0.032 mg/dL | TC [7]: 47.2 mg/dL | TG [7]: 99.4 mg/dL | TP [7]: 5.2 g/dL | gamma-GTP [7]: 1.4 IU/L | TERMINAL_BW [8]: 217.9 g | APTT [8]: 24.3 s | Bas [8]: 0% | Eos [8]: 1% | Fbg [8]: 286.4 mg/dL | Hb [8]: 13.3 g/dL | Ht [8]: 39.8% | Lym [8]: 74.8% | MCHC [8]: 33.4% | MCV [8]: 62.7 fL | Mono [8]: 2.4% | Neu [8]: 21.4% | PT [8]: 18.6 s | Plat [8]: 127.2 x10_4/uL | RBC [8]: 635.8 x10_4/ul | Ret [8]: 7.2% | WBC [8]: 84.4 x10_2/uL | KIDNEY_L [8]: 1 g | KIDNEY_R [8]: 1 g | KIDNEY_TOTAL [8]: 2 g | LIVER [8]: 10.5 g | ALP [8]: 1879.4 IU/L | ALT [8]: 44.4 IU/L | AST [8]: 76.8 IU/L | BUN [8]: 12.2 mg/dL | CRE [8]: 0.1 mg/dL | DBIL [8]: 0 mg/dL | GLC [8]: 186 mg/dL | IP [8]: 6.9 mg/dL | K [8]: 4.3 meq/L | LDH [8]: 219.6 IU/L | Na [8]: 141.6 meq/L | PL [8]: 121.2 mg/dL | RALB [8]: 3.1 g/dL | TBIL [8]: 0 mg/dL | TC [8]: 44.6 mg/dL | TG [8]: 266.6 mg/dL | TP [8]: 5.6 g/dL | gamma-GTP [8]: 1.2 IU/L

Source: ChEMBL document CHEMBL3885861, “Open TG-GATES”
